# Measurements published in patent US6603046B1, “Bis-aromatic a,β-unsaturated ketones” (Lica Pharmaceuticals A/S, priority 1992, dated 2003).
# Read-outs that look alike come from different tables or passages of the source.
# Experiments:
# [1] = system: L. donovani promastigotes; assay: In vitro growth of L. donovani promastigotes, 3H-thymidine uptake (Example 4); format: cell-based; conditions: Leishmania donovani; for inhibition at 1 µg/mL: 1 μg/ml; for inhibition at 2 µg/mL: 2 μg/ml; for inhibition at 5 µg/mL: 5 μg/ml; for inhibition at 10 µg/mL: 10 μg/ml; for inhibition at 20 µg/mL: 20 μg/ml
# L. donovani = L. donovani infection in hamsters (Example 9); format: in vivo, syrian golden hamsters (Mesocricetus auratus); conditions: i.p. 10 mg per kg two times per day for 7 days
# [2] = system: chloroquine resistant P. falciparum DD2 strain; assay: In vitro growth of P. falciparum DD2, 3H-hypoxanthine uptake (Example 15); format: cell-based, Plasmodium falciparum; conditions: for Growth in % of control (mean ± SEM): title: percentage inhibition of 3H-hypoxanthine uptake
# L. pneumophilia = assay: microbe, parasite or virus in culture; format: cell-based; conditions: Legionella pneumophila
# Streptococcus pneumonia = assay: MIC, macrodilution (Example 17); format: cell-based; conditions: Streptococcus pneumoniae; 1 strain
# Gram positive cocci = assay: MIC, macrodilution (Example 17), text summary; format: cell-based
# Helicobacter pylori = assay: MIC on Helicobacter pylori, microaerophilic (Example 18); format: cell-based
# Procedure: Bacteria. 16 recent clinical isolates of Helicobacter pylori from patients with duodenal ulcer or chronic gastritis. […] Staphylococcus aureus ATCC 25923 was used as control strain. The Helicobacter pylori strains were subcultured on chocolate agar plates with cysteine in a microaerophilic atmosphere at 37° C. for 72 hours and kept frozen at −80° C. until assayed. MIC determinations. Macrodilution rows were made with Helicomedia with 2 ml in all vials. […] All dilution rows were inoculated to give a final concentration of 10^5 CFU/ml. The MIC rows were incubated under microaerophilic conditions for […]. […] The control strain Staphylococcus aureus was incubated both aerobically and microaerophilically at 37° C. for 24 hours. All plates were read by the Karber method.
# Mycobacteria = format: cell-based
# M. tuberculosis = assay: Radiometric MIC/MBC (Example 19); format: cell-based
# Procedure: 63 strains of mycobacteria were used in this study. The bacteria were grown in Dubos broth media before susceptibility testing. Licochalcone A was isolated as described in Example 1. Licochalcone A was dissolved in dimethyl sulfoxide (DMSO) and diluted in distilled water to the desired concentration.
# Susceptibility testing was performed radiometrically by using a BECTEC 460-TB apparatus (Becton Dickinson) in a confined atmosphere (5% CO2). […] The growth was expressed as a numerical value called the growth index (GI) which ranged from 1 to 999. The 7H12 vials were inoculated with 0.1 ml of an appropriately diluted Dubos broth culture to give a final inoculum of about 5×10^4 colony-forming units (CFU) per ml together with 0.1 ml of different concentrations of licochalcone A. The final concentrations of licochalcone A tested ranged from 1.25 μg/ml to 80 μg/ml. A vial without licochalcone A, but with an inoculum diluted 1:100, was included as a control. The final inoculum was determinate by culturing 0.1 ml from the control vial onto one Lowenstein-Jensen slant. The vials were incubated under stationary conditions at 35° C. and growth was monitored by daily GI determination for 7 days. At day 7, 0.1 ml from each vial with a GI reading <30 was cultured onto one Lowenstein-Jensen slant. Colony counts were enumerated after incubation at 35° C. for 3 weeks.
# M. bovis = format: cell-based; conditions: n = 8
# M. avium = assay: Radiometric MIC (Example 19); format: cell-based
# Strain = H37RV = assay: MIC with and without 10% human serum; format: cell-based; conditions: for MIC: Mycobacterium tuberculosis, H37RV
# [3] = Serum concentration in rabbits after intravenous administration (Example 20); format: in vivo; conditions: rabbit
# Procedure: Number of rabbits: 1 rabbit for each group
# Dose: 20 mg per kg body weight
# Route: Intravenously, administered once
# Samples: Samples were drawn from each rabbit twice.
# (§1) Serum or plasma was diluted with one part of acetonitrile, left for 15 min at 4° C., and centrifugated for 3 min at 10,000 g. An aliquot of the supernatant was chromatographed at 37° C. by HPLC over Spherisorb ODS-2 (5 μm, 120×4.5 mm, Phase Separation LTD, UK) using acetonitrile aqueous acetic acid, 2%, (1:1) as an eluent, flow rate 1.5 ml/min, and UV detection (370 nm and 254 nm).
# [4] = Plasma concentration and half live in mice after i.p. injection, HPLC (Example 25); format: in vivo
# Procedure: as §1
# Standards. Standards containing 14.68 μg/ml, 4.90 μg/ml, and 0.45 μg/ml plasma were freshly prepared every day. The standards were wrapped in tinfoil to avoid light catalyzed isomerization.
# A solution of 2,4dimethylnitrobenzene (0.20 μl/ml) was used as an internal standard.
# Licochalcone A (10 mg/kg mouse≈200 μg/mouse) was injected i.p. into mice. The mice were sacrificed and bleeded after 15, 30, 60, 120, 240 and 480 min. The plasma was obtained by centrifugation. 100 μl of plasma was added to 100 μl of the solution of the internal standard and the mixture left for 30 min. The mixture was centrifuged for 5 min at 10,000 g and 20 μl of the clear supernatant was analyzed by HPLC (Example 23).
# [5] = Reaction with N-acetyl-L-cysteine, HPLC (Example 26); format: physicochemical; conditions: 7 days
# Procedure: Formation of N-acetyl-L-cysteine conjugates of licochalcone A. A solution of 1.5 mg of licochalcone A and 100 mg of N-acetyl-L-cysteine in acetonitrile0.13 M aqueous potassium phosphate buffer solution pH 7.5 (1:3) was left for 7 days at ambient temperature protected from light.
# [6] = read-out: percentage inhibition of 3H-thymidine uptake (mean ± SEM), 3-day culture
# [7] = read-out: percentage inhibition of 3H-thymidine uptake (mean ± SEM), 6-day culture
# [8] = Helicobacter pylori, 16 clinical isolates
structure (smiles),measurement,setting,value
"C=CC(C)(C)c1cc(/C=C/C(=O)c2ccc(O)cc2)c(OC)cc1O [Licochalcone A, licochalcone A]",inhibition at 1 µg/mL,[1]; [6],15.2 ± 14.5%
same,inhibition at 2 µg/mL,[1]; [6],23.5 ± 16.4%
same,inhibition at 5 µg/mL,[1]; [6],53.7 ± 14%
same,inhibition at 10 µg/mL,[1]; [6],81.5 ± 8%
same,inhibition at 20 µg/mL,[1]; [6],96.7 ± 0.8%
same,inhibition at 1 µg/mL,[1]; [7],30.4 ± 23.8%
same,inhibition at 2 µg/mL,[1]; [7],42.2 ± 16.6%
same,inhibition at 5 µg/mL,[1]; [7],70.1 ± 12.4%
same,inhibition at 10 µg/mL,[1]; [7],91.9 ± 3.1%
same,inhibition at 20 µg/mL,[1]; [7],98.3 ± 0.8%
same,parasite load in the liver and the spleen,L. donovani,reduced to almost undetectable levels
same,IC50,"[2]; Plasmodium falciparum, DD2, read-out: concentration in which parasite growth was retarded by 50%",0.5 to 1 µg/mL
same,Growth in % of control (mean ± SEM),[2]; 0.1 μg/ml,5.0 ± 2.0%
same,Growth in % of control (mean ± SEM),[2]; 0.5 μg/ml,41.0 ± 4.0%
same,Growth in % of control (mean ± SEM),[2]; 1 μg/ml,66.0 ± 3.0%
same,Growth in % of control (mean ± SEM),[2]; 5 μg/ml,98.0 ± 1.0%
same,Growth in % of control (mean ± SEM),[2]; 10 μg/ml,99.0 ± 0.0001%
same,MIC,"L. pneumophilia; L. pneumophilia serogr. 1, 4 strains",1 to 4 µg/mL
same,MIC,"L. pneumophilia; L. pneumophilia serogr. 2-7, 6 strains",2 to 4 µg/mL
same,MIC,"L. pneumophilia; read-out: MIC-values, clinical isolates",1 to 4 µg/mL
same,MIC,Streptococcus pneumonia,4 µg/mL
same,MIC,Gram positive cocci,4000 to 8000 µg/mL
same,MIC Range,Helicobacter pylori; 16 clinical isolates,16 to 125 µg/mL
same,MIC50,Helicobacter pylori; [8],62 µg/mL
same,MIC90,Helicobacter pylori; [8],125 µg/mL
same,MIC,"Helicobacter pylori; Helicobacter pylori, read-out: MIC of the only strain with a low MIC",16 µg/mL
same,Species with MIC ≦ 20 μg/ml,Mycobacteria,M. kansasii and M. xenophii and M. marinum and M. tuberculosis and M. bovis and BCG
same,meanMIC (second line),M. tuberculosis; n = 2,meanMIC = 40 μg/ml (n = 2)
same,meanMIC,M. tuberculosis; n = 19,meanMIC = 7.1 μg/ml
same,rangeMIC,M. tuberculosis; n = 19,rangeMIC = 5-10 μg/ml (n = 19)
same,meanMIC,M. bovis,meanMIC = 15.7 μg/ml
same,rangeMIC,M. bovis,rangeMIC = 10-20 μg/ml (n = 8)
same,meanMIC,"M. avium; AIDS patients, n=4",> 80 µg/mL
same,MIC,"M. avium; Mycobacterium avium, read-out: MIC, all M. avium/intracellular strains",≥ 20 µg/mL
same,meanMIC,"M. avium; non AIDS patients, n=7",> 80 µg/mL
same,increase of MIC when supplemented with 10% of serum,Strain = H37RV,8 fold
same,MIC,Strain = H37RV; read-out: MIC+serum,40 µg/mL
same,MIC,Strain = H37RV; read-out: MIC−serum,5 µg/mL
same,concentration at 24 h,"[3]; 24 hours after intravenous 20 mg per kg, detection limit",< 50 ng/mL
same,concentration at 1 h,[3]; one hour following intravenous 20 mg per kg,350 ng/mL
same,plasma concentration,"[4]; 10 mg/kg i.p., after 120 min",below det. limit
same,plasma concentration,"[4]; 10 mg/kg i.p., after 240 min",below det. limit
same,plasma concentration,"[4]; 10 mg/kg i.p., after 480 min",below det. limit
same,metabolites in mouse plasma,[4]; HPLC,Three metabolites have been detected
same,concentration at 15 min,"[4]; mouse, plasma, intraperitoneal, 10 mg/kg i.p., after 15 min",1330 ng/mL
same,concentration at 30 min,"[4]; mouse, plasma, intraperitoneal, 10 mg/kg i.p., after 30 min",280 ng/mL
same,concentration at 60 min,"[4]; mouse, plasma, intraperitoneal, 10 mg/kg i.p., after 60 min",140 ng/mL
same,stability in buffer without N-acetyl-L-cysteine,[5],No similar decrease
same,reaction with N-acetyl-L-cysteine,"[5]; acetonitrile-phosphate buffer pH 7.5 (1:3), ambient temperature",decreased amounts of licochalcone A and appearance of two new peaks
